Legend:
P38 MAP kinase [1] = target: T1, P38 MAP kinase (Homo sapiens, UniProt Q16539); assay: HPLC based Chemical Array Assay: protein-bound compounds separated from free compounds, UV and mass spectrum of protein fraction; type: binding; settings: for identity by mass spectrum of the compound extracted from the mixture and released from the protein: 5 uM P38 MAP kinase + 5 uM mixture of Quinine and 86002, Diol column
T1 construct: purchased Sigma
Experimental: (§1) Drug-like chemical compounds representing a collection of drug-like chemical scaffolds (Sigma-Aldrich, ICN, Calbiochem) were weighed and mixed to a final concentration of 20 uM each in 50 mM ammonium acetate pH 7, 10% methanol. 1 uM to 20 uM tubulin or P38 MAP kinase (Sigma) were dispensed into HPLC low volume sample cuvettes (Waters) and mixed with 0.5 uM to 20 uM compounds.
(§2) The compounds were eluted using an acetonitrile gradient past a UV detector and into a TOF mass spectrometer (Micromass LCT). […] In other mass spectrometry instruments, fragmentation can be achieved in a collision cell. The fragmentation pattern which is characteristic for each compound consists of the larger parent peak and other peaks representing fragments of the chemical compound or their isotopes. […] Alternatively, one or more characteristic isotope(s) of the parent peak representing the molecular weight of the compound was compared with the standard to identify the compound that bound the protein target. In another alternative analysis, the parent peak representing the molecular weight of the compound was itself compared with the standard to identify the compound. Sometimes, the combination of these methods was also used to identify the compound.

tubulin = assay: as above; type: binding; settings: 10 compound mixture 0.5 uM each, tubulin 0, 5 and 20 uM, GFF II column
Experimental: as §1, §2

P38 MAP kinase [2] = target: T1, P38 MAP kinase; settings: stated as a known property of the ligand; cited from earlier work

T1 sequence (Q16539 whole entry): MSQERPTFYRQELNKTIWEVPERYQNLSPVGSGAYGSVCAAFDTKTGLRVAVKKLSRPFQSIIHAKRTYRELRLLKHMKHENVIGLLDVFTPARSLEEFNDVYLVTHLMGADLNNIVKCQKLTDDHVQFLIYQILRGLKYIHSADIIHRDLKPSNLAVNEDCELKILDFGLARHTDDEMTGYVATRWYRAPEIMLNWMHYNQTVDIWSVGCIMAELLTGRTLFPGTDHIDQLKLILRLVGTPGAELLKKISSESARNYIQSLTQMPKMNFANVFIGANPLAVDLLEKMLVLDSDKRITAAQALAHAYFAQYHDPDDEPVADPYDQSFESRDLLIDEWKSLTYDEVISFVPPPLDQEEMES

Row | SMILES | mass spectrum of the collected protein fraction compared with the standard (P38 MAP kinase [1]; 5 uM P38 MAP kinase + 5 uM compound alone, Diol column) | identity by mass spectrum of the compound extracted from the mixture and released from the protein (P38 MAP kinase [1]) | reduction of the compound's UV peak (unbound compound) with increasing P38 (P38 MAP kinase [1]; 2-compound mixture 5 uM each, P38 0, 2.5, 5 and 10 uM, Diol column) | level of the compound's characteristic peaks in the mass spectrum of the protein fraction (P38 MAP kinase [1]; 10 compound mixture 0.5 uM each, GFF II column) | reduction of the compound's UV peak (unbound compound) with increasing P38 (P38 MAP kinase [1]; 10 compound mixture 0.5 uM each, P38 0, 3.5 and 5 uM, GFF II column) | level of the compound's characteristic peak in the mass spectrum of the protein fraction (P38 MAP kinase [1]; 100 compound mixture 20 uM each, P38 2 uM, GFF II column) | reduction of the compound's UV peak (unbound compound) with increasing tubulin (tubulin) | affinity for the P38 MAP kinase protein target (P38 MAP kinase [2])
1 | Fc1ccc(-c2nc3n(c2-c2ccncc2)CCS3)cc1 [SKB86002] | corresponded to the 86002 standard | identified as 86002 | concentration dependant reduction | at a level far higher than other peaks | concentration dependent reduction | at a level far higher than other peaks | negligible reduction | micromolar affinity
2 | C=C[C@H]1CN2CC[C@H]1C[C@H]2[C@H](O)c1ccnc2ccc(OC)cc12.Cl [quinine, quinine monohydrochloride] |  | not quinine |  |  |  |  |  | 
